Laboratory results reported in patent publication US20230257484A1, “DENDROBIUM OFFICINALE OLIGOSACCHARIDE, DENDROBIUM OFFICINALE OLIGOSACCHARIDE DERIVATIVE AND PREPARATION METHOD AND USE THEREOF” (KUNMING INSTITUTE OF BOTANY, CHINESE ACADEMY OF SCIENCES, priority 2021, published 2023).
Blank lines part the entries; values can stand above or below the compound they belong to.

Key:
[1] = molecular target: porcine pancreatic elastase (Sus scrofa, UniProt P00772); test: Elastase inhibition rate; assay type: biochemical
Sequence of porcine pancreatic elastase (P00772 27-266): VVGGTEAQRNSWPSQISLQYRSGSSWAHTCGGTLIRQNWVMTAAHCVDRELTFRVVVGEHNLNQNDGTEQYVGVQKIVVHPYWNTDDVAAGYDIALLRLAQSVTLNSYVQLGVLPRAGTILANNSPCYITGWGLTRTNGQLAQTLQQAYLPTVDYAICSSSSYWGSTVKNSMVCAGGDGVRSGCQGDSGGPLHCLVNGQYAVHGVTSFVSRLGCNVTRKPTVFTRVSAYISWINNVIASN
Experimental: Experiment on the Elastase Inhibition Rate
Sample, positive control of catechin, Tris, HCl, porcine pancreatic elastase, N-succinyl-alanine-alanine-alanine-p-nitroaniline, DMSO.
Preparation of a sample solution: 1 mg/mL sample solution was prepared (pure water or a buffer solution was used for preparation, and if insoluble in water or the buffer solution, the sample was firstly dissolved with DMSO, and then water or the buffer solution was added. In principle, the content of DMSO should not exceed 5%).
Preparation of a positive control: 1 mg/mL catechin;
Preparation of a buffer solution: 0.1 M of Tris-HCl buffer solution, PH=8.0;
Preparation of a reaction substrate solution: N-succinyl-alanine-alanine-alanine-p-nitroaniline (AAAPVN) solution (2 mM);
Preparation: 28.5 μL of porcine pancreatic elastase solution (0.171 U/mL) was taken and dissolved in 10 mL of Tris-HCl buffer solution.
(2) The solution of 50 μL of sample, 50 μL of porcine pancreatic elastase and 100 μL of reaction substrate was added to a 96-well plate.
(3) After keeping at room temperature for 5 min, an absorbance at 420 nm was measured.
Elastase inhibition rate (%)=(1−sample OD420 nm/experimental well OD420 nm)×100%.

[2] = system: IL-6 secretion, RAW264.7 cells; test: Immunomodulatory activity: IL-6 secretion by RAW264.7 cells (ELISA); assay type: cell-based; conditions: for IL-6 pg/mL: RAW264.7, 24 h
Experimental: (§1) Evaluation of the Immunomodulatory Activity of Dendrobium officinale Oligosaccharides RAW264.7 cells, TNF-α kit, IL-6 kit, distilled water. The logarithmic-growth RAW264.7 cells were taken and inoculated into 12-well plates after cell counting. The plate was placed in an incubator overnight, and then the cell supernatant was discarded. Different concentrations of Dendrobium officinale oligosaccharides, lipopolysaccharides and basal medium 1640 were added under aseptic operation, and the supernatant after 24 h of intervention was collected and stored at −20° C. for later use. The changes in TNF-α and IL-6 secretion were detected according to the instructions of the ELISA kit. The OD value was measured by a microplate reader with a detection wavelength of 450 nm. The OD value was substituted into the regression equation of the standard curve to calculate the increase rate of TNF-α and IL-6 secretion.

[3] = DPPH free radical scavenging; assay type: biochemical
Experimental: Experiment on the DPPH Free Radical Scavenging
DPPH, water-soluble vitamin E (Trolox) (Trolox dissolved in absolute ethanol, with a concentration of 10 mM, stored at −20° C.), pure water.
The drug to be tested was mixed with DPPH (a final concentration of 100 µM) and reacted at 30° C. for 1 h. 3 repeating wells were set, and a blank control well without drug and a Trolox positive control well were set at the same time. The OD value was measured by a microplate reader with a detection wavelength of 515 nm, and the anti-oxidation rate was calculated.
Anti-oxidation rate (%)=(1−experimental well OD515nm/blank well OD515nm)×100%.

[4] = system: secretion of hyaluronic acid, Hacat cells; test: Promoting secretion of hyaluronic acid in Hacat cells (ELISA); assay type: cell-based, human; conditions: for Secretion of hyaluronic acid: Hacat cells, 24 h
Experimental: Experiment on Promoting Secretion of Hyaluronic Acid
Human immortalized […] (Hacat cells), human hyaluronic acid Elisa kit, distilled water.
A 96-well plate was inoculated with […] of cell suspension per well, and a concentration of the suspension was 4×10^5 cells/mL. After 24 h of incubation, the original culture medium was discarded, then the cells were washed with PBS for 1-2 times and the serum-free medium containing different concentrations of the drug to be tested was added thereto, and continued to incubate for 24 h. A blank control without drugs and a TGF-β positive control were set. Then the cells were lysed with ripa lysis buffer solution containing 1% PMSF, the supernatant after centrifugation was taken, and the secretion of hyaluronic acid was detected according to the method provided in the […]. The OD value was measured by a microplate reader with a detection wavelength of 450 nm. The OD value was substituted into the regression equation of the standard curve to calculate the increase rate of the secretion of hyaluronic acid.

[5] = system: TNF-α secretion, RAW264.7 cells; test: Immunomodulatory activity: TNF-α secretion by RAW264.7 cells (ELISA); assay type: cell-based; conditions: for TNF-α: RAW264.7, 24 h
Experimental: as §1

Hacat cells = test: Survival of Hacat cells; assay type: cell-based, human
RAW264.7 cells = test: Survival of RAW264.7 cells; assay type: cell-based
collagenase = test: Collagenase inhibition rate; assay type: biochemical
Experimental: Experiment on Collagenase Inhibition Rate
Protease buffer solution, protease, protease substrate, inhibitor (1,10-Phenanthroline). All reagents were stored at −20° C.
a. Background blank well: 100 μL/well of protease buffer solution.
b. Sample well: 100 μL, prepared into different concentrations.
c. Positive control well: 10 μL of protease+90 μL of protease buffer solution.
(3) After adding reagents according to the above groups, 100 μL of collagenase reaction mixture was added to each well, incubated in the dark, and then the OD value at 345 nm was measured.
The incubation time depended on the activity of the sample to be tested, and the low activity sample could be incubated for 1-3 h.
Collagenase inhibition rate (%)=(ODbackground well−ODsample well)/(ODbackground well−ODpositive control well).

[6] = final reaction concentration 4%
[7] = final reaction concentration 8%
[8] = final reaction concentration 11%
[9] = final reaction concentration 15%
[10] = final reaction concentration 20%
[11] = final reaction concentration 1%

elastase inhibition activity ([1]; concentration of 20%): > 10%
Elastase inhibition rate % [1, 6]: −2.135%
Elastase inhibition rate % [1, 7]: 3.886%
Elastase inhibition rate % [1, 8]: 8.417%
Elastase inhibition rate % [1, 9]: 9.723%
Elastase inhibition rate % [1, 10]: 15.827%
collagenase inhibition activity (collagenase; concentration of 0.4%-4%): > 50%
Collagenase inhibition rate (%) (collagenase; final reaction concentration 0.4%): 50.32%
Collagenase inhibition rate (%) (collagenase; final reaction concentration 0.8%): 63.63%
Collagenase inhibition rate (%) (collagenase; [11]): 72.20%
Collagenase inhibition rate (%) (collagenase; final reaction concentration 2%): 84.80%
Collagenase inhibition rate (%) (collagenase; [6]): 110.54%
SMILES: O=C(O)C1O[C@@H](O)C(O)C(O)[C@@H]1O[C@@H]1OC(CO)[C@@H](O[C@@H]2OC(CO)[C@@H](O[C@@H]3OC(CO)[C@@H](O[C@@H]4OC(CO)[C@H](O[C@@H]5OC(CO)[C@H](O)C(O)C5O)C(O)C4O)C(O)C3O)C(O)C2O)C(O)C1O (stereo partly shown) [Dendrobium officinale oligosaccharide]
secretion of IL-6 by RAW264.7 macrophages (in words) ([2]; concentration of 50 μg/mL, equivalent to the positive control LPS): significantly increased
IL-6 pg/mL ([2]; final reaction concentration 50 μg/mL): 1593.01 pg/mL
IL-6 pg/mL ([2]; final reaction concentration 100 μg/mL): 1376.42 pg/mL
IL-6 pg/mL ([2]; final reaction concentration 200 μg/mL): 1117.33 pg/mL
anti-oxidation rate ([3]; concentration of 15%-20%): > 20%
Anti-oxidation rate (%) [3, 6]: 11.335%
Anti-oxidation rate (%) [3, 7]: 14.346%
Anti-oxidation rate (%) [3, 8]: 16.213%
Anti-oxidation rate (%) [3, 9]: 21.155%
Anti-oxidation rate (%) [3, 10]: 25.217%
activity to promote the secretion of hyaluronic acid ([4]; concentration of 8%-20%): > 0.3 ng/mL
Secretion of hyaluronic acid [4, 6]: 0.2294 ng/mL
Secretion of hyaluronic acid [4, 7]: 0.5530 ng/mL
Secretion of hyaluronic acid [4, 8]: 0.3691 ng/mL
Secretion of hyaluronic acid [4, 9]: 0.4930 ng/mL
Secretion of hyaluronic acid [4, 10]: 0.5392 ng/mL
secretion of TNF-α by RAW264.7 macrophages (in words) ([5]; concentration of 3.125 μg/mL, equivalent to the positive control LPS): significantly increased
TNF-α ([5]; final reaction concentration 3.125 μg/mL): 1062.29 pg/mL
TNF-α ([5]; final reaction concentration 6.25 μg/mL): 35.66 pg/mL
TNF-α ([5]; final reaction concentration 12.5 μg/mL): 53.86 pg/mL
survival rate and survival time of cells (Hacat cells): increase the survival rate and survival time
survival rate and survival time of cells (RAW264.7 cells): increase the survival rate and survival time

Collagenase inhibition rate (%) (collagenase; [11]): 102.23%
SMILES: c1cnc2c(c1)ccc1cccnc12 [Positive inhibitor, 1,10-Phenanthroline, reference compound]

SMILES: Cc1c(C)c2c(c(C)c1O)CCC(C)(C(=O)O)O2 (stereo not shown) [Trolox, reference compound]
Anti-oxidation rate (%) ([3]; final reaction concentration 25 (unit not given), DPPH, 30° C., 1 h): 95.668%

inhibition at 100 µg/mL ([1]; final reaction concentration 100 μg/ml): 68.5%
SMILES: O=C(O[C@@H]1Cc2c(O)cc(O)cc2O[C@@H]1c1ccc(O)c(O)c1)c1cc(O)c(O)c(O)c1 [epicatechin gallate, reference compound]
